Data taken from patent publication US9115177B2, “Preparation method of micafungin sodium” (Shanghai Techwell Biopharmaceutical Co., Ltd., priority 2011, dated 2015).
Where two headings read alike, the source gives them in different places. Marks after values point to notes of the source that are not given here. Numbered stars: 1 amine (or outer) side, 2 acyl side, 3 side chain; on linkers, the order of the positions; unused ones are H or OH. Bridge positions count the residues as written; N and C are the ends. Square brackets hold non-standard residues; d marks the D form. Peptide text beside a SMILES is read from it. * marks the point of attachment. hTyr(3S-OH,4S-OH,3'-OSO3H) = N[C@H](C(=O)O)[C@H](O)[C@@H](O)c1ccc(O)c(OS(=O)(=O)O)c1; Orn(4R-OH,5R-OH) = O=C([C@H](C[C@@H](O)[C@@H](O)N[*:3])N[*:1])[*:2]; Pro(3S-OH,4S-Me) = C[C@H]1CN[C@H](C(=O)O)[C@H]1O; X1 = CCCCCOc1ccc(-c2cc(-c3ccc(C(=O)*)cc3)no2)cc1; Gln(3R-OH) = NC(=O)C[C@@H](O)[C@H](N)C(=O)O; Hyp = O=C(O)[C@@H]1C[C@@H](O)CN1

Assays:
[1] = conjugate acid of weak base; cited from earlier work
[2] = pKa values of compounds of benzene sulfonic acid; format: physicochemical
Procedure: Generally, there are two ways for preparing acid into sodium salt. One is exchange using cationic resin; the other is via adjusting pH value. Virtually, preparing sodium salt by adjusting pH value is a process of neutralization reaction between acid and base. It includes two types of reactions, i.e. the reaction between strong acid and strong base, and the reaction between […]. If strong base solution is added into strong acid solution for adjusting pH value, there is a sharp change in the pH value of the solution (the change of pH value is illustrated in FIG. 6), and the pH value will be instantly altered by 8. Therefore in the practical production, it is hard to control the pH value and a slightest mistake could lead to an overregulated pH value. In WO2004014879, a 0.1 mol/L NaOH solution was used to adjust pH value to 6-8 for obtaining formula II compound. It was actually a reaction between strong acid and strong base. […] Therefore, theoretically, the method using NaOH solution to adjust pH values for obtaining sodium salt is unsuitable for preparation of formula II compound.

[3] = pH adjustment of formula I compound with 0.1 mol/L NaOH solution, HPLC; format: physicochemical; settings: pH adjusted with 0.1 mol/L NaOH solution added dropwise
Procedure: The inventors have repeated the method reported in WO2004014879 for multiple times and analyzed and validated the reported method from the point of view of local pH value.
The method for measuring HPLC purity of Formula I compound is shown as follows.
HPLC analytical column: YMC-ODS 250×4.6 mm, 5 μm
Mobile phase: acetonitrile: phosphate buffer (pH 3.0)=[…]
Column temperature: 35±5° C.
Dilution: phosphate buffer in water
Wave length detected: 210 nm
Volume of sample injection: 10 μl
Retention time of the main peak: approx. 18 min.
According to the purification process for micafungin in WO2004014879, ion exchange was applied to 0.5 g of compound of formula I by using 50 ml of cation exchange resin UBK510L. The product was sampled and analyzed. HPLC purity was determined as 99.54%. […] The product was sampled and analyzed. HPLC purity was determined as 98.01% (See FIG. 2). […] The produce was sampled and analyzed. HPLC purity was determined as 97.90%. […] The product was sampled and analyzed. HPLC purity was determined as 97.81%. […] The product was sampled and analyzed. HPLC purity was determined as 97.75%. […] The product was sampled and analyzed. HPLC purity was determined as 97.67%. […] The product was sampled and analyzed. HPLC purity was determined as 97.59%. […] The product was sampled and analyzed.

SMILES | pKa1 [1] | pKa2 [1] | other results
OB(O)O [boric acid] | 9.24 | 12.74^a | pKa3 [1]: 13.80^a
S [hydrosulfuric acid] | 6.88 | 14.15^a | –
O=C(O)CC(O)C(=O)O (centres unmarked) [malic acid] | 3.40^a | 5.13 | –
CCCCCOc1ccc(-c2cc(-c3ccc(C(=O)N[C@H]4C[C@@H](O)[C@@H](O)NC(=O)[C@@H]5[C@@H](O)[C@@H](C)CN5C(=O)[C@H]([C@H](O)CC(N)=O)NC(=O)[C@H]([C@H](O)[C@@H](O)c5ccc(O)c(OS(=O)(=O)O)c5)NC(=O)[C@@H]5C[C@@H](O)CN5C(=O)[C@H]([C@@H](C)O)NC4=O)cc3)no2)cc1 [micafungin, Micafungin] (X1-[Orn(4R-OH,5R-OH)]T[Hyp][hTyr(3S-OH,4S-OH,3'-OSO3H)][Gln(3R-OH)][Pro(3S-OH,4S-Me)]; lactam 1-C) | – | – | pKa [2]: < 1; degradation after pH adjustment (HPLC) [3]: obvious degradation; stability in solution (pH 4.0-6.0): more stable; stability in solution (pH 4.0-7.0): stability is good; stability in solution (pH 4.5-5.5): most stable; stability in solution (pH of solution adjusted to 7): no obvious degradation; stability in solution (solution with high pH value): poor stability
C/C=C/C=C/C(=O)O [sorbic acid] | 4.76 | – | –
O=S(O)O [sulfurous acid] | 1.90^a | 7.20 | –
